Assay: gradient 5% acetonitrile 3 min, to 50% in 2 min, to 85% in 15 min, held 3 min, 100 µL/min
Settings: column: Zorbax Extend-C18 2.1 x 50 mm; eluents: water / acetonitrile, 0.1% formic acid
Summary of the method: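 Retention time was recorded from adduct peaks, which were picked computationally and each inspected manually. Pure standards ran in mixtures of ~100 molecules on HPLC coupled to a quadrupole time-of-flight mass spectrometer, in positive and negative ionization mode, through a Zorbax Extend-C18 column (2.1 × 50 mm, 1.8 μm) at 100 μL/min. Eluents were water and acetonitrile, each with 0.1% formic acid.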

Structure (SMILES) | RP-LC retention time [s]
COc1ccccc1-c1nc2cnccn2c1NCCC(=O)Nc1cc(F)ccc1F | 723
Cc1ccc(-c2cn3c(CC(=O)Nc4ccc(Cl)cc4F)csc3n2)cc1C | 966
COCCNC(=O)N1CC(c2nc(-c3cccnc3)no2)C2(CCOCC2)C1 (stereo not given) | 596
O=C(O)c1cnc(N2CCSCC2)nc1-c1ccccc1 | 866
Cc1cc(=O)n(CC(=O)Nc2ccccc2F)c(N2CCc3ccccc3C2)n1 | 802
CCOC(=O)c1c(S(=O)(=O)N2CCC(C(=O)Nc3cccc(Cl)c3)CC2)c(C)n(CC)c1C | 986
COc1cccc(-c2nc(-c3ccc(S(=O)(=O)N4CCCCC4)cc3)no2)c1 | 1270
CCn1c(C(=O)NCc2ccc3c(c2)OCO3)cc2c(-c3cccs3)nn(-c3ccccc3)c21 | 1120
COCc1cc(=O)n(CC(=O)NCc2ccccc2Cl)c(N)n1 | 619
O=C(Nc1ccc2c(c1)OCO2)C1CCN(C(=O)C2Sc3ccccc3NC2=O)CC1 (stereo not given) | 736
COc1cc(O)c(C(=O)/C=C/c2ccccc2)c(OC)c1 | 1220
Cc1noc(-c2cccn2Cc2ccccc2Cl)n1 | 1110
COc1cccc(-c2nc(CS(=O)(=O)CC(=O)N3CCN(c4ccccn4)CC3)c(C)o2)c1 | 631
Cc1nc2ccccc2c(=O)n1Cc1noc(-c2cccc(Br)c2)n1 | 948
O=C(Cn1c(=O)c2cccn2c2ccc(F)cc21)NCCCN1CCCC1 | 598
O=C(c1ccc(OCC2CCN(C(=O)c3ccsc3)CC2)cc1)N1CCOCC1 | 678
CCCNC(=O)c1ccc2ncnc(N3CCCC3)c2c1 | 576
CCS(=O)(=O)c1ccc(-c2ccc(NS(=O)(=O)c3ccc(Cl)s3)cc2)nn1 | 810
Cc1noc(-c2ccc(-n3cnc(C(=O)NCCc4ccccc4)c3)nc2)n1 | 678
Cc1ccc(N2CC(c3nc(-c4ccccn4)no3)CC2=O)cc1Cl (stereo not given) | 838
O=C(NCc1ccc(Br)cc1)C1CCN(C(=O)c2cc(-c3ccncc3)n[nH]2)CC1 | 618
Cc1ccc(OCc2nnc(SCC(=O)Nc3nc(-c4ccccc4)cs3)o2)cc1 | 875

Structure (SMILES) | RP-LC retention time [s]
CCOC(=O)c1c(C)[nH]c(C(=O)N2CCC(CC(=O)NCc3ccc(C)cc3)CC2)c1C | 822
Cc1ccc(C2Cn3cnc(C(=O)N4CCC(C(=O)NCC5CCCCC5)CC4)c3CO2)cc1 (stereo not given) | 885
O=C1CC(C(F)(F)F)c2c(c(C(=O)O)cn2-c2cccc(F)c2)N1 (stereo not given) | 747
COc1cccc(CNC(=O)c2nnc(-c3ccc(S(=O)(=O)N4CCOCC4)cc3)o2)c1 | 822
CS(=O)(=O)NCc1ccc2c(c1)CCN2C(=O)c1ccccc1 | 733
CC(C)Cn1c(=O)c(C(=O)NCCc2cccnc2)nc2cccnc21 | 635
COc1ccc(S(=O)(=O)N2CCc3nc(CNC(=O)C4CCC4)n(C)c3C2)cc1 | 628
CC(=O)Nc1nsc(N2CCCC(C(=O)N3CCN(c4cc(C)ccc4C)CC3)C2)n1 (stereo not given) | 843
O=C(CN1CCN(c2ccccn2)CC1)N1N=CCC1c1ccccc1 (stereo not given) | 573
CN(C)C[C@@H]1CN(S(C)(=O)=O)C[C@H]1NC(=O)Cn1c(=O)oc2ccccc21 | 575
Cc1cc(C)cc(NC(=O)c2cn(-c3cc(N4CCCC4)ncn3)cn2)c1 | 972
CCC(C)NC(=O)C1CCN(S(=O)(=O)c2c(C)nn(-c3ccc(F)cc3)c2C)CC1 (stereo not given) | 842
CCc1ccccc1N1C(=O)c2c(C(=O)OC)ncn2CC1(C)C(=O)NC1CCCC1 (stereo not given) | 733
O=C(NCc1ccc2c(c1)OCO2)c1ncoc1-c1ccccc1C(=O)N1CCCC1 | 757
COc1ccccc1C(=O)Oc1ccc(N(C)C2=NS(=O)(=O)c3ccccc32)cc1 | 910
CCc1c(C2CCN(C(=O)Nc3ccc(C)c(C)c3)CC2)noc1N | 793
CCc1ccc(-c2nc(C3CC(=O)N(c4ccc(Cl)cc4)C3)no2)cc1 (stereo not given) | 1020
CCCNC(=O)NCCC1CCN(S(=O)(=O)c2ccc(C)cc2)CC1 | 742
Cc1cc(C)n(-c2ccnc(N3CCC(C(=O)N4CCCC4)CC3)n2)n1 | 739
O=C(NCCC1CCN(S(=O)(=O)c2ccc(F)cc2)CC1)NC1CCCCC1 | 890
O=C(NCCn1c(=O)n(Cc2ccc(F)cc2)c2cccnc21)c1ccsc1 | 762
O=C(C1CCOC1)N1CCCn2nc(-c3cccc(Cl)c3)cc2C1 (stereo not given) | 771

Structure (SMILES) | RP-LC retention time [s]
CCOC(=O)c1ccc(NC(=O)N2CCCC2c2cc(C)no2)cc1 (stereo not given) | 809
CCCS(=O)(=O)N1CCCN(S(=O)(=O)c2ccccc2)CCC(=O)NCC1 | 707
Cc1ccc(-c2nnc(-c3nn(C)c4c3CN(S(=O)(=O)c3ccccc3Cl)CC4)o2)cc1 | 1020
COc1ccc(-c2nnc3n2CCN(Cc2cn(C)nc2C)C3)cc1 | 552
O=C(Cc1csc(-c2ccccc2)n1)Nc1nc(-c2ccccc2Cl)cs1 | 1210
Cc1ccc(-c2cc(C(=O)N(C)Cc3ccccc3)c(C)[nH]2)cc1C | 1040
CC1=C(C(=O)N2CCOCC2)C(c2ccc(F)c(Br)c2)C2=C(CCCC2=O)N1 (stereo not given) | 659
O=S(=O)(c1ccc2c(c1)CCC2)N1CCC2(CC1)CC(Cc1nc(-c3cnccn3)no1)CCO2 (stereo not given) | 1010
O=C(NCc1csc(-c2ccccc2)n1)C1CCN(S(=O)(=O)c2ccc3[nH]c(=O)oc3c2)CC1 | 758
CCn1c(=O)c(N2CCCC(C(=O)NCCc3c[nH]c4ccc(Cl)cc34)C2)nc2ccccc21 (stereo not given) | 1010
CC(=O)N[C@@H]1CN(C(=O)c2cc(Cl)ccc2F)C[C@H]1CO | 608
Fc1ccc(-n2cc(-c3noc(-c4cccc(F)c4)n3)nn2)cc1 | 1050
O=S(=O)(c1cccc(-c2nnc(-c3ccc(Cl)cc3)o2)c1)N1CCCC1 | 1050
Cc1cc(C)c(S(=O)(=O)N2CCCC(C(=O)NCc3ccncc3)C2)c(C)c1 (stereo not given) | 647
O=C1CN(Cc2ccc3c(c2)OCO3)C2CS(=O)(=O)CC2N1c1cccc(Cl)c1 (stereo not given) | 770
O=C1C(c2cccnc2)N(CCCc2ccccc2)C(=O)CN1c1ccccc1 (stereo not given) | 776
Cn1cc(-c2cc3n(n2)CCC(=O)N3CCCC(=O)NC2CCCCC2)c2ccccc21 | 847
CCc1cccc(-n2nnc(C(=O)O)c2CC)c1 | 788
Cc1c(Cl)cccc1Nc1ncccc1C(=O)O | 841
Cc1[nH]c2ccccc2c1C(=O)CSc1nnc2sc3ccccc3n12 | 829
NS(=O)(=O)c1ccc(CCNC(=O)c2nc(Cn3nc(-c4ccc(F)cc4)ccc3=O)no2)cc1 | 733

From the METLIN SMRT retention time set (Domingo-Almenara et al. 2019)
